Experimental data: patent publication US6054435A, “6-O-substituted macrolides having antibacterial activity” (priority 1999, dated 2000)
Converted amounts (≈) assume the structure as drawn.

Tests used:
Test in all cases: in vitro antibacterial activity (MIC), agar dilution
Assay type in all cases: cell-based
[1] = system: Staphylococcus aureus 1775; settings: organism code GG; BHI agar, 35-37° C., 20 to 24 hours; unit assumed
Description: (§1) Representative compounds of the present invention were assayed in vitro for antibacterial activity as follows: Twelve petri dishes containing successive aqueous dilutions of the test compound mixed with 10 mL of sterilized Brain Heart Infusion (BHI) agar (Difco 0418-01-5) were prepared. Each plate was inoculated with 1:100 (or 1:10 for slow-growing strains, such as Micrococcus and Streptococcus) dilutions of up to 32 different microorganisms, using a Steers replicator block. […] In addition, a control plate, using BHI agar containing no test compound, was prepared and incubated at the beginning and end of each test.
(§2) An additional plate containing a compound having known susceptibility patterns for the organisms being tested and belonging to the same antibiotic class as the test compound was also prepared and incubated as a further control, as well as to provide test-to-test comparability.
(§3) After incubation, each plate was visually inspected. The minimum inhibitory concentration (MIC) was defined as the lowest concentration of drug yielding no growth, a slight haze, or sparsely isolated colonies on the inoculum spot as compared to the growth control.

[2] = system: Staphylococcus epidermidis 3519; settings: organism code HH; BHI agar, 35-37° C., 20 to 24 hours; unit assumed
Description: as §1, §2, §3

[3] = system: Streptococcus Pneumonia 5649; settings: organism code ZZA; BHI agar, 35-37° C., 20 to 24 hours; unit assumed
Description: as §1, §2, §3

[4] = system: Streptococcus Pneumonia 5979; settings: organism code ZZ; BHI agar, 35-37° C., 20 to 24 hours; unit assumed
Description: as §1, §2, §3

[5] = system: Staphylococcus aureus CMX 642A; settings: organism code DD; BHI agar, 35-37° C., 20 to 24 hours; unit assumed
Description: as §1, §2, §3

[6] = system: Enterococcus faecium ATCC 8043; settings: organism code II; BHI agar, 35-37° C., 20 to 24 hours; unit assumed
Description: as §1, §2, §3

[7] = system: Staphylococcus aureus NCTC10649M; settings: organism code EE; BHI agar, 35-37° C., 20 to 24 hours; unit assumed
Description: as §1, §2, §3

[8] = system: Micrococcus luteus ATCC 4698; settings: organism code PP; BHI agar, 35-37° C., 20 to 24 hours; unit assumed
Description: as §1, §2, §3

Candida albicans CCH 442 = settings: organism code TT; BHI agar, 35-37° C., 20 to 24 hours; unit assumed
Description: as §1, §2, §3

[9] = system: Streptococcus Pneumonia GYR 1171; settings: organism code YY; BHI agar, 35-37° C., 20 to 24 hours; unit assumed
Description: as §1, §2, §3

[10] = system: Streptococcus pyogenes 930; settings: organism code MM; BHI agar, 35-37° C., 20 to 24 hours; unit assumed
Description: as §1, §2, §3

Escherichia coli DC-2 = settings: organism code SS; BHI agar, 35-37° C., 20 to 24 hours; unit assumed
Description: as §1, §2, §3

[11] = system: Staphylococcus aureus A5177; settings: organism code BB; BHI agar, 35-37° C., 20 to 24 hours; unit assumed
Description: as §1, §2, §3

[12] = system: Nocardia Asteroides ATCC9970; settings: organism code VV; BHI agar, 35-37° C., 20 to 24 hours; unit assumed
Description: as §1, §2, §3

[13] = system: Streptococcus Pneumonia ATCC6303; settings: organism code XX; BHI agar, 35-37° C., 20 to 24 hours; unit assumed
Description: as §1, §2, §3

Escherichia coli SS = settings: organism code RR; BHI agar, 35-37° C., 20 to 24 hours; unit assumed
Description: as §1, §2, §3

[14] = system: Mycobacterium smegmatis ATCC 114; settings: organism code UU; BHI agar, 35-37° C., 20 to 24 hours; unit assumed
Description: as §1, §2, §3

[15] = system: Streptococcus bovis A-5169; settings: organism code JJ; BHI agar, 35-37° C., 20 to 24 hours; unit assumed
Description: as §1, §2, §3

[16] = system: Micrococcus luteus ATCC 9341; settings: organism code OO; BHI agar, 35-37° C., 20 to 24 hours; unit assumed
Description: as §1, §2, §3

Escherichia coli JUHL = settings: organism code QQ; BHI agar, 35-37° C., 20 to 24 hours; unit assumed
Description: as §1, §2, §3

[17] = system: Staphylococcus aureus ATCC 6538P; settings: organism code AA; BHI agar, 35-37° C., 20 to 24 hours; unit assumed
Description: as §1, §2, §3

[18] = system: Streptococcus pyogenes EES61; settings: organism code LL; BHI agar, 35-37° C., 20 to 24 hours; unit assumed
Description: as §1, §2, §3

[19] = system: Streptococcus agalactiae CMX 508; settings: organism code KK; BHI agar, 35-37° C., 20 to 24 hours; unit assumed
Description: as §1, §2, §3

[20] = system: Streptococcus pyogenes PIU 2548; settings: organism code NN; BHI agar, 35-37° C., 20 to 24 hours; unit assumed
Description: as §1, §2, §3

[21] = system: Staphylococcus aureus A-5278; settings: organism code CC; BHI agar, 35-37° C., 20 to 24 hours; unit assumed
Description: as §1, §2, §3

[22] = system: Staphylococcus aureus CMX 553; settings: organism code FF; BHI agar, 35-37° C., 20 to 24 hours; unit assumed
Description: as §1, §2, §3

[23] = system: Haemophilis Influenzae DILL AMP R; settings: organism code WW; BHI agar, 35-37° C., 20 to 24 hours; unit assumed
Description: as §1, §2, §3

Row | Compound | MIC [1] [µg/mL] | MIC [2] [µg/mL] | MIC [4] [µg/mL] | MIC [5] [µg/mL] | MIC [7] [µg/mL] | MIC [8] [µg/mL] | MIC (Candida albicans CCH 442) [µg/mL] | MIC [9] [µg/mL] | MIC [10] [µg/mL] | MIC (Escherichia coli DC-2) [µg/mL] | MIC [11] [µg/mL] | MIC [12] [µg/mL] | MIC [13] [µg/mL] | MIC (Escherichia coli SS) [µg/mL] | MIC [14] [µg/mL] | MIC [15] [µg/mL] | MIC [16] [µg/mL] | MIC (Escherichia coli JUHL) [µg/mL] | MIC [17] [µg/mL] | MIC [18] [µg/mL] | other results
1 | CC[C@H]1OC(=O)[C@H](C)C(=O)[C@H](C)[C@@H](O[C@@H]2O[C@H](C)C[C@H](N(C)C)[C@H]2O)[C@](C)(OC/C=C/c2cncc(-c3ccsc3)c2)C[C@@H](C)C(=O)[C@H](C)[C@H]2NC(=O)O[C@@]21C [Example 49] | > 100 | 0.1 (≈ 0.125 µM) | 32 (≈ 40.1 µM) | 0.1 (≈ 0.125 µM) | 0.1 (≈ 0.125 µM) | 0.05 (≈ 0.0627 µM) | > 100 | ≤ 0.004 | 25 (≈ 31.3 µM) | 50 (≈ 62.7 µM) | 0.05 (≈ 0.0627 µM) | 0.05 (≈ 0.0627 µM) | ≤ 0.004 | 0.39 (≈ 0.489 µM) | 0.39 (≈ 0.489 µM) | 0.02 (≈ 0.0251 µM) | 0.02 (≈ 0.0251 µM) | 50 (≈ 62.7 µM) | 0.1 (≈ 0.125 µM) | 0.02 (≈ 0.0251 µM) | MIC [3]: 0.03 µg/mL (≈ 0.0376 µM); MIC [6]: 0.05 µg/mL (≈ 0.0627 µM); MIC [19]: 0.02 µg/mL (≈ 0.0251 µM); MIC [20]: 0.2 µg/mL (≈ 0.251 µM); MIC [21]: > 100 µg/mL; MIC [22]: 0.05 µg/mL (≈ 0.0627 µM)
2 | CC[C@H]1OC(=O)[C@H](C)C(=O)[C@H](C)[C@@H](O[C@@H]2O[C@H](C)C[C@H](N(C)C)[C@H]2O)[C@](C)(OC/C=C/c2cncc(-c3ccccc3)c2)C[C@@H](C)C(=O)[C@H](C)[C@H]2NC(=O)O[C@@]21C [Example 42] | > 100 | 0.2 (≈ 0.253 µM) | 32 (≈ 40.4 µM) | 0.2 (≈ 0.253 µM) | 0.2 (≈ 0.253 µM) | 0.2 (≈ 0.253 µM) | > 100 | 0.03 (≈ 0.0379 µM) | 50 (≈ 63.1 µM) | 50 (≈ 63.1 µM) | 0.1 (≈ 0.126 µM) | 0.2 (≈ 0.253 µM) | 0.03 (≈ 0.0379 µM) | 0.78 (≈ 0.985 µM) | 0.39 (≈ 0.492 µM) | 0.02 (≈ 0.0253 µM) | 0.02 (≈ 0.0253 µM) | 100 (≈ 126 µM) | 0.1 (≈ 0.126 µM) | 0.02 (≈ 0.0253 µM) | MIC [6]: 0.05 µg/mL (≈ 0.0631 µM); MIC [23]: 4 µg/mL (≈ 5.05 µM); MIC [19]: 0.02 µg/mL (≈ 0.0253 µM); MIC [20]: 0.2 µg/mL (≈ 0.253 µM); MIC [21]: > 100 µg/mL; MIC [22]: 0.1 µg/mL (≈ 0.126 µM)
3 | CC[C@H]1OC(=O)[C@H](C)C(=O)[C@H](C)[C@@H](O[C@@H]2O[C@H](C)C[C@H](N(C)C)[C@H]2O)[C@](C)(OCC#Cc2ccc(-c3cccc(F)c3)s2)C[C@@H](C)C(=O)[C@H](C)[C@H]2NC(=O)O[C@@]21C [Example 15] | 50 (≈ 61.5 µM) | 0.2 (≈ 0.246 µM) | 0.25 (≈ 0.308 µM) | 0.2 (≈ 0.246 µM) | 0.2 (≈ 0.246 µM) | 0.1 (≈ 0.123 µM) | > 100 | 0.015 (≈ 0.0185 µM) | 3.1 (≈ 3.81 µM) | > 100 | 0.1 (≈ 0.123 µM) | 0.2 (≈ 0.246 µM) | 0.015 (≈ 0.0185 µM) | 0.39 (≈ 0.48 µM) | 0.39 (≈ 0.48 µM) | 0.05 (≈ 0.0615 µM) | 0.05 (≈ 0.0615 µM) | > 100 | 0.1 (≈ 0.123 µM) | 0.05 (≈ 0.0615 µM) | MIC [3]: 0.25 µg/mL (≈ 0.308 µM); MIC [23]: 2 µg/mL (≈ 2.46 µM); MIC [19]: 0.05 µg/mL (≈ 0.0615 µM); MIC [20]: 0.2 µg/mL (≈ 0.246 µM); MIC [21]: 50 µg/mL (≈ 61.5 µM); MIC [22]: 0.1 µg/mL (≈ 0.123 µM)
